Biological target: human α-thrombin (Homo sapiens, UniProt P00734)
Assay: Sub-library screen for active and permeable cyclic peptides (PAMPA plus thrombin inhibition)
Type: biochemical
Details: crude, slopes normalized to DMSO; for Residual thrombin activity: Top sample: PAMPA acceptor well after 14 h, 5 μM donor; for Residual thrombin activity: Equilibrated sample: donor sample diluted to theoretical equilibrium (1 μM in assay)
In short: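 Acylated cyclic peptides at 5 μM in PBS pH 7.4 with 5% DMSO were run through PAMPA for 14 h at room temperature. Acceptor wells and a diluted donor sample at 3 μM, representing maximum permeability, were preincubated 10 min with human α-thrombin (6 nM stock). Z-Gly-Gly-Arg-AMC (150 μM stock) fluorescence was then read for 30 min at 25 °C, and inhibition was taken against a no-peptide control.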

SMILES	Residual thrombin activity: Top sample	Residual thrombin activity: Equilibrated sample
O=C1C[C@H]2CCCN2C(=O)[C@H](Cc2ccc(Cl)cc2)NC(=O)[C@@H](NC(=O)c2ccc(Cl)s2)CCSCc2ccc(cc2)CSCCN1 [C2-X34-L3]	99.4	99.1
O=C1C[C@H]2CCCN2C(=O)[C@H](Cc2ccc(C(F)(F)F)cc2)NC(=O)[C@@H](NC(=O)c2ccc(Cl)s2)CCSCc2cccc(n2)CSCCN1 [C2-X36-L1]	95.5	97.7
O=C1C[C@H]2CCCN2C(=O)[C@H](Cc2ccc(C(F)(F)F)cc2)NC(=O)[C@@H](NC(=O)c2ccc(Cl)s2)CCSCCS(=O)(=O)CCSCCN1 [C2-X36-L2]	101.5	101.8
O=C1C[C@H]2CCCN2C(=O)[C@H](Cc2ccc(C(F)(F)F)cc2)NC(=O)[C@@H](NC(=O)c2ccc(Cl)s2)CCSCc2ccc(cc2)CSCCN1 [C2-X36-L3]	95.8	101.3
O=C1C[C@H]2CCCN2C(=O)[C@H](Cc2ccc(C(F)(F)F)cc2)NC(=O)[C@@H](NC(=O)c2ccc(Cl)s2)CCSCc2cccc(c2)CSCCN1 [C2-X36-L5]	106.2	106.1
O=C1C[C@H]2CCCN2C(=O)[C@H](Cc2ccc(C(F)(F)F)cc2)NC(=O)[C@@H](NC(=O)c2ccc(Cl)s2)CCSCc2ccccc2CSCCN1 [C2-X36-L6]	96.8	97.9
Cc1cccc(C[C@@H]2NC(=O)[C@@H](NC(=O)c3ccc(Cl)s3)CCSCc3cccc(n3)CSCCNC(=O)C[C@H]3CCCN3C2=O)c1 [C2-X37-L1]	88.2	83.3
Cc1cccc(C[C@@H]2NC(=O)[C@@H](NC(=O)c3ccc(Cl)s3)CCSCCS(=O)(=O)CCSCCNC(=O)C[C@H]3CCCN3C2=O)c1 [C2-X37-L2]	97.6	73.7
Cc1cccc(C[C@@H]2NC(=O)[C@@H](NC(=O)c3ccc(Cl)s3)CCSCc3ccc(cc3)CSCCNC(=O)C[C@H]3CCCN3C2=O)c1 [C2-X37-L3]	100.6	94.8
Cc1cccc(C[C@@H]2NC(=O)[C@@H](NC(=O)c3ccc(Cl)s3)CCSCc3cccc(c3)CSCCNC(=O)C[C@H]3CCCN3C2=O)c1 [C2-X37-L5]	104.6	95.0
Cc1cccc(C[C@@H]2NC(=O)[C@@H](NC(=O)c3ccc(Cl)s3)CCSCc3ccccc3CSCCNC(=O)C[C@H]3CCCN3C2=O)c1 [C2-X37-L6]	97.5	96.9
Cc1cccc(C[C@@H]2NC(=O)[C@@H](NC(=O)c3ccc(Cl)s3)CCSCC(=O)CSCCNC(=O)C[C@H]3CCCN3C2=O)c1 [C2-X37-L7]	99.9	83.6
O=C1C[C@H]2CCCN2C(=O)[C@H](Cc2ccccc2)NC(=O)[C@@H](NC(=O)c2ccc(Cl)s2)CCCSCc2cccc(n2)CSCCN1 [C3-X5-L1]	64.7	75.1
O=C1C[C@H]2CCCN2C(=O)[C@H](Cc2ccccc2)NC(=O)[C@@H](NC(=O)c2ccc(Cl)s2)CCCSCCS(=O)(=O)CCSCCN1 [C3-X5-L2]	81.8	27.6
O=C1C[C@H]2CCCN2C(=O)[C@H](Cc2ccccc2)NC(=O)[C@@H](NC(=O)c2ccc(Cl)s2)CCCSCc2ccc(cc2)CSCCN1 [C3-X5-L3]	86.8	50.1
O=C1C[C@H]2CCCN2C(=O)[C@H](Cc2ccccc2)NC(=O)[C@@H](NC(=O)c2ccc(Cl)s2)CCCSCc2cccc(c2)CSCCN1 [C3-X5-L5]	84.2	60.5
O=C1C[C@H]2CCCN2C(=O)[C@H](Cc2ccccc2)NC(=O)[C@@H](NC(=O)c2ccc(Cl)s2)CCCSCc2ccccc2CSCCN1 [C3-X5-L6]	74.4	55.6
O=C1C[C@H]2CCCN2C(=O)[C@@H](Cc2ccccc2)NC(=O)[C@@H](NC(=O)c2ccc(Cl)s2)CCCSCc2cccc(n2)CSCCN1 [C3-X31-L1]	96.1	92.4
O=C1C[C@H]2CCCN2C(=O)[C@@H](Cc2ccccc2)NC(=O)[C@@H](NC(=O)c2ccc(Cl)s2)CCCSCCS(=O)(=O)CCSCCN1 [C3-X31-L2]	103.5	93.7

Next, values leading:

Residual thrombin activity: Top sample	Residual thrombin activity: Equilibrated sample	SMILES
99.3	99.5	O=C1C[C@H]2CCCN2C(=O)[C@H](Cc2ccc(Cl)cc2)NC(=O)[C@@H](NC(=O)c2ccc(Cl)s2)CCSCCS(=O)(=O)CCSCCN1 [C2-X34-L2]
98.6	98.5	O=C1C[C@H]2CCCN2C(=O)[C@H](Cc2ccc(Cl)cc2)NC(=O)[C@@H](NC(=O)c2ccc(Cl)s2)CCSC/C=C/CSCCN1 [C2-X34-L4]
106.3	106.4	O=C1C[C@H]2CCCN2C(=O)[C@H](Cc2ccc(Cl)cc2)NC(=O)[C@@H](NC(=O)c2ccc(Cl)s2)CCSCc2cccc(c2)CSCCN1 [C2-X34-L5]
93.6	95.7	O=C1C[C@H]2CCCN2C(=O)[C@H](Cc2ccc(Cl)cc2)NC(=O)[C@@H](NC(=O)c2ccc(Cl)s2)CCSCc2ccccc2CSCCN1 [C2-X34-L6]
104.6	101.4	O=C1CSCCNC(=O)C[C@H]2CCCN2C(=O)[C@H](Cc2ccc(Cl)cc2)NC(=O)[C@@H](NC(=O)c2ccc(Cl)s2)CCSC1 [C2-X34-L7]
95.8	96.1	N#Cc1ccc(C[C@@H]2NC(=O)[C@@H](NC(=O)c3ccc(Cl)s3)CCSCc3cccc(n3)CSCCNC(=O)C[C@H]3CCCN3C2=O)cc1 [C2-X35-L1]
102.9	100.1	N#Cc1ccc(C[C@@H]2NC(=O)[C@@H](NC(=O)c3ccc(Cl)s3)CCSCCS(=O)(=O)CCSCCNC(=O)C[C@H]3CCCN3C2=O)cc1 [C2-X35-L2]
101.8	100.4	N#Cc1ccc(C[C@@H]2NC(=O)[C@@H](NC(=O)c3ccc(Cl)s3)CCSCc3ccc(cc3)CSCCNC(=O)C[C@H]3CCCN3C2=O)cc1 [C2-X35-L3]
100.5	100.3	N#Cc1ccc(C[C@@H]2NC(=O)[C@@H](NC(=O)c3ccc(Cl)s3)CCSC/C=C/CSCCNC(=O)C[C@H]3CCCN3C2=O)cc1 [C2-X35-L4]
106.2	101.3	N#Cc1ccc(C[C@@H]2NC(=O)[C@@H](NC(=O)c3ccc(Cl)s3)CCSCc3cccc(c3)CSCCNC(=O)C[C@H]3CCCN3C2=O)cc1 [C2-X35-L5]
90.0	91.7	N#Cc1ccc(C[C@@H]2NC(=O)[C@@H](NC(=O)c3ccc(Cl)s3)CCSCc3ccccc3CSCCNC(=O)C[C@H]3CCCN3C2=O)cc1 [C2-X35-L6]
103.0	104.7	N#Cc1ccc(C[C@@H]2NC(=O)[C@@H](NC(=O)c3ccc(Cl)s3)CCSCC(=O)CSCCNC(=O)C[C@H]3CCCN3C2=O)cc1 [C2-X35-L7]
103.3	101.3	O=C1C[C@H]2CCCN2C(=O)[C@H](Cc2ccc(C(F)(F)F)cc2)NC(=O)[C@@H](NC(=O)c2ccc(Cl)s2)CCSC/C=C/CSCCN1 [C2-X36-L4]
102.7	104.5	O=C1CSCCNC(=O)C[C@H]2CCCN2C(=O)[C@H](Cc2ccc(C(F)(F)F)cc2)NC(=O)[C@@H](NC(=O)c2ccc(Cl)s2)CCSC1 [C2-X36-L7]
90.6	77.5	Cc1cccc(C[C@@H]2NC(=O)[C@@H](NC(=O)c3ccc(Cl)s3)CCSC/C=C/CSCCNC(=O)C[C@H]3CCCN3C2=O)c1 [C2-X37-L4]
55.8	36.8	O=C1C[C@H]2CCCN2C(=O)[C@H](Cc2ccccc2)NC(=O)[C@@H](NC(=O)c2ccc(Cl)s2)CCCSC/C=C/CSCCN1 [C3-X5-L4]
73.4	33.5	O=C1CSCCC[C@H](NC(=O)c2ccc(Cl)s2)C(=O)N[C@@H](Cc2ccccc2)C(=O)N2CCC[C@@H]2CC(=O)NCCSC1 [C3-X5-L7]

— paper PMC11062899, “De novo development of small cyclic peptides that are orally bioavailable” (Nature Chemical Biology, 2023)
